The values below come from patent publication US20250084074A1, “SUBSTITUTED HETEROCYCLES AS HSET INHIBITORS” (MERCK PATENT GMBH, priority 2022, published 2025).

Counter-ions that a name gives are not always drawn.

Sequence of HSET full length protein (Q9BW19 whole entry): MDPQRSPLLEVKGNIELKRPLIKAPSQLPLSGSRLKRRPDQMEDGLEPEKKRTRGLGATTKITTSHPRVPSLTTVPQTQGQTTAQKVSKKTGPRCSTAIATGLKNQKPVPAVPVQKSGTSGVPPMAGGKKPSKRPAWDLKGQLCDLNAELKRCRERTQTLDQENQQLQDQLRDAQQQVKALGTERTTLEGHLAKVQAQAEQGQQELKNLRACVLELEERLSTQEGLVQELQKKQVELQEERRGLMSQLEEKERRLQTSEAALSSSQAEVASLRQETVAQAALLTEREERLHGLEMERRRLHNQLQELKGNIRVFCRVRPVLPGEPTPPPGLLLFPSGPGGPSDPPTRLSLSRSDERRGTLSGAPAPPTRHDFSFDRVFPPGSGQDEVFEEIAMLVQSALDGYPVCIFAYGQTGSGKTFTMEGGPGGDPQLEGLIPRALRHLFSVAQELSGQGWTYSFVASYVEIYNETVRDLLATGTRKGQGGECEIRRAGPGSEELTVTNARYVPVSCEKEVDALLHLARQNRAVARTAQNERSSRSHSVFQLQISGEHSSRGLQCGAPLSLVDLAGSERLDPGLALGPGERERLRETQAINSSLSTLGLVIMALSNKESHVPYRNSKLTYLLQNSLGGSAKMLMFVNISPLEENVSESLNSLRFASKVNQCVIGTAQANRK

The assay concerns the target HSET full length protein (Homo sapiens (Human), UniProt Q9BW19). Kind of assay: HSET ADP-Glo Assay S - 3 μM ATP. It is filed as biochemical. The conditions noted are these: 5 nM HSET, 70 μg/mL microtubule, 80 min at rt, read-out: COMBINED HSET ADP GLO IC50. The method, boiled down: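 ADP-Glo luminescence read-out: ATPase reaction at 3 μM ATP, 80 min at room temperature, after a 10 min compound preincubation. Enzyme was full-length human HSET at 5 nM, stimulated by 70 μg/mL paclitaxel-stabilised bovine microtubules in HEPES pH 6.8 buffer with MgCl2, EGTA, Triton X-100 and DTT.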
As to `Cc1nc(-c2ccc3ccnc(NC[C@@H](O)C(=O)Nc4nc(C)c(C(C)(C)C)s4)c3c2)no1` [Example 190, (R)-N-(5-(tert-butyl)-4-methylthiazol-2-yl)-2-hydroxy-3-((7-(5-methyl-1,2,4-oxadiazol-3-yl)isoquinolin-1-yl)amino)propanamide], the IC50 is 0.726 µM.

Regarding `Cc1nc(-c2ccc3ccnc(NC[C@@H](O)C(=O)Nc4nc(C)c(CC(C)C)s4)c3c2)no1` [Example 191, (R)-2-hydroxy-N-(5-isobutyl-4-methylthiazol-2-yl)-3-((7-(5-methyl-1,2,4-oxadiazol-3-yl)isoquinolin-1-yl)amino)propenamide], the IC50 stood at 0.284 µM.

On to `Cc1nc(-c2ccc3ccnc(NC[C@@H](O)C(=O)Nc4nc(C)c(C5(C(F)(F)F)CC5)s4)c3c2)no1` [Example 192, (R)-2-hydroxy-3-((7-(5-methyl-1,2,4-oxadiazol-3-yl)isoquinolin-1-yl)amino)-N-(4-methyl-5-(1-(trifluoromethyl)cyclopropyl)thiazol-2-yl)propanamide], for which the IC50 turned out to be 0.461 µM.

As for `Cc1nc(-c2cccc(C(=O)N[C@@H](CC#N)CC(=O)Nc3nc(C)c(C(=O)OC(C)(C)C)s3)c2)no1` [Example 193, tert-Butyl 2-[(3S)-4-cyano-3-{[3-(5-methyl-1,2,4-oxadiazol-3-yl)phenyl]form, amido}-butanamido]-4-methyl-1,3-thiazole-5-carboxylate], the IC50 was determined as 0.005 µM.

Consider `Cc1nc(-c2cccc(C(=O)N[C@H](CC#N)CC(=O)Nc3nc(C)c(C(=O)OC(C)(C)C)s3)c2)no1` [Example 194, tert-Butyl 2-[(3R)-4-cyano-3-{[3-(5-methyl-1,2,4-oxadiazol-3-yl)phenyl]form-amido}butanamido]-4-methyl-1,3-thiazole-5-carboxylate], for which the IC50 was 0.096 µM.

Consider `Cc1nc(-c2cccc(C(=O)N[C@@H](CC#N)CC(=O)Nc3nc(C)c(C(=O)OC(C)C)s3)c2)no1` [Example 195, Propan-2-yl 2-[(3S)-4-cyano-3-{[3-(5-methyl-1,2,4-oxadiazol-3-yl)phenyl]form-amido}butanamido]-4-methyl-1,3-thiazole-5-carboxylate], for which the IC50 was determined as 0.012 µM.

Regarding `Cc1nc(-c2cccc(C(=O)N[C@H](CC#N)CC(=O)Nc3nc(C)c(C(=O)OC(C)C)s3)c2)no1` [Example 196, Propan-2-yl 2-[(3R)-4-cyano-3-{[3-(5-methyl-1,2,4-oxadiazol-3-yl)phenyl]form-amido}butanamido]-4-methyl-1,3-thiazole-5-carboxylate], the concentration for half-maximal inhibition (IC50) came out at 0.167 µM.

As for `COC(=O)c1sc(NC(=O)C[C@H](CC#N)NC(=O)c2cccc(-c3noc(C)n3)c2)nc1C` [Example 197, Methyl 2-[(3S)-4-cyano-3-{[3-(5-methyl-1,2,4-oxadiazol-3-yl)phenyl]formamido}, butanamido]-4-methyl-1,3-thiazole-5-carboxylate], the IC50 was 0.135 µM. In the case of `COC(=O)c1sc(NC(=O)C[C@@H](CC#N)NC(=O)c2cccc(-c3noc(C)n3)c2)nc1C` [Example 198] it was 0.181 µM; in that of `Cc1nc(-c2cccc(C(=O)N[C@@H](CC#N)CC(=O)N(C)c3nc(C)c(C(=O)OC(C)C)s3)c2)no1` [Example 199, Propan-2-yl 2-[(3S)-4-cyano-N-methyl-3-{[3-(5-methyl-1,2,4-oxadiazol-3-yl)phenyl]-formamido}butanamido]-4-methyl-1,3-thiazole-5-carboxylate], 0.01 µM. On to `Cc1nc(-c2cccc(C(=O)N[C@H](CC#N)CC(=O)N(C)c3nc(C)c(C(=O)OC(C)C)s3)c2)no1` [Example 200, Propan-2-yl 2-[(3R)-4-cyano-N-methyl-3-{[3-(5-methyl-1,2,4-oxadiazol-3-yl)phenyl]-formamido}butanamido]-4-methyl-1,3-thiazole-5-carboxylate], for which the IC50 was 0.295 µM. On to `Cc1nc(NC(=O)C[C@H](CC#N)NC(=O)c2cccc(-c3cnn(C)c3)c2)sc1C(=O)OC(C)(C)C` [Example 201], for which the IC50 stood at 0.41 µM. Turning to `Cc1nc(NC(=O)C[C@@H](CC#N)NC(=O)c2cccc(-c3cnn(C)c3)c2)sc1C(=O)OC(C)(C)C` [Example 202], the concentration for half-maximal inhibition (IC50) amounted to 8.85 µM. On to `Cc1nc(NC(=O)C[C@H](CC#N)NC(=O)c2cccc(-c3cnn(C)c3)c2)sc1C(=O)OC(C)C` [Example 203], for which the IC50 turned out to be 1.1 µM.

Regarding `Cc1nc(NC(=O)C[C@@H](CC#N)NC(=O)c2cccc(-c3cnn(C)c3)c2)sc1C(=O)OC(C)C` [Example 204], the IC50 is 5.7 µM. The value for `Cc1nc(N(C)C(=O)C[C@H](CC#N)NC(=O)c2cccc(-c3cnn(C)c3)c2)sc1C(=O)OC(C)C` [Example 205] was 4.4 µM. On to `Cc1nc(N(C)C(=O)C[C@@H](CC#N)NC(=O)c2cccc(-c3cnn(C)c3)c2)sc1C(=O)OC(C)C` [Example 206], for which the IC50 amounted to 9.3 µM.

Consider `Cc1nc(NC(=O)C[C@H](CC#N)NC(=O)c2cccc(C#N)c2)sc1C(=O)OC(C)C` [Example 207, Propan-2-yl 2-[(3S)-4-cyano-3-[(3-cyanophenyl)formamido]butan-amido]-4-methyl-1,3-thiazole-5-carboxylate], for which the IC50 is 0.59 µM.

For `Cc1nc(NC(=O)C[C@H](CC#N)Nc2nccc3ccc(C#N)cc23)sc1C(=O)OC(C)C` [Example 208, Propan-2-yl 2-[(3S)-4-cyano-3-[(7-cyanoisoquinolin-1-yl)amino]butan-amido]-4-methyl-1,3-thiazole-5-carboxylate], the IC50 was 0.079 µM. As for `Cc1nc(NC(=O)C[C@@H](CC#N)Nc2nccc3ccc(C#N)cc23)sc1C(=O)OC(C)C` [Example 209, Propan-2-yl 2-[(3R)-4-cyano-3-[(7-cyanoisoquinolin-1-yl)amino]butan-amido]-4-methyl-1,3-thiazole-5-carboxylate], the IC50 stood at 4 µM. Regarding `Cc1nc(NC(=O)C[C@H](CC#N)Nc2nccc3ccc(-c4cnn(C)c4)cc23)sc1C(=O)OC(C)C` [Example 210, Propan-2-yl 2-[(3S)-4-cyano-3-{[7-(1-methyl-1 H-pyrazol-4-yl)isoquinolin-1-yl]amino}butanamido]-4-methyl-1,3-thiazole-5-carboxylate], the IC50 was found to be 0.7 µM. Take `Cc1nc(NC(=O)C[C@H](CC#N)NC(=O)c2cccc(-c3cnn(C)c3)n2)sc1C(=O)OC(C)(C)C` [Example 211, tert-Butyl 2-[(3S)-4-cyano-3-{[6-(1-methyl-1 H-pyrazol-4-yl)pyridin-2-yl]formamido}butanamido]-4-methyl-1,3-thiazole-5-carboxylate]: the IC50 was determined as 1.3 µM. In the case of `Cc1nc(NC(=O)C[C@@H](CC#N)NC(=O)c2cccc(-c3cnn(C)c3)n2)sc1C(=O)OC(C)(C)C` [Example 212, tert-Butyl 2-[(3R)-4-cyano-3-{[6-(1-methyl-1 H-pyrazol-4-yl)pyridin-2-yl]formamido}butanamido]-4-methyl-1,3-thiazole-5-carboxylate], the half-maximal inhibitory concentration (IC50) was determined as 3.35 µM. As to `Cc1nc(NC(=O)C[C@H](CC#N)NC(=O)c2cccc(-c3cnn(C)c3)n2)sc1C(=O)OC(C)C` [Example 213, Propan-2-yl 2-[(3S)-4-cyano-3-{[6-(1-methyl-1 H-pyrazol-4-yl)pyridin-2-yl]formamido}butanamido]-4-methyl-1,3-thiazole-5-carboxylate], the IC50 was determined as 1.7 µM. With `Cc1nc(NC(=O)C[C@@H](CC#N)NC(=O)c2cccc(-c3cnn(C)c3)n2)sc1C(=O)OC(C)C` [Example 214], the IC50 came out at 2.4 µM. Consider `CCOC(=O)c1sc(NC(=O)CC(CC)NC(=O)c2cccc(-c3noc(C)n3)c2)nc1C` (stereo not drawn) [Example 215], for which the IC50 was 0.084 µM. On to `COC(=O)c1sc(NC(=O)C[C@H](CC(=O)O)NC(=O)c2cccc(-c3noc(C)n3)c2)nc1C` [Example 216, (3R)-4-{[5-(methoxycarbonyl)-4-methyl-1,3-thiazol-2-yl]carbamoyl}-3-{[3-(5-methyl-1,2,4-oxadiazol-3-yl)phenyl]formamido}butanoic acid], for which the IC50 was 1.7 µM.

For `COC(=O)c1sc(N(C)C(=O)C[C@@H](CC(=O)O)NC(=O)c2cccc(-c3noc(C)n3)c2)nc1C` [Example 217], the IC50 came out at 7.3 µM. `CCN(c1nc(C)c(C(=O)OC(C)(C)C)s1)C(=O)[C@H]1C[C@@H](Nc2nccc3ccc(-c4noc(C)n4)cc23)C1` [Example 218, tert-Butyl 2-((1s,3s)-N-ethyl-3-((7-(5-methyl-1,2,4-oxadiazol-3-yl)isoquinolin-1-yl)amino)cyclobutanecarboxamido)-4-methylthiazole-5-carboxylate formate]: the IC50 worked out at 0.041 µM. As to `CCOC(=O)c1sc(N(C)C(=O)CCNC(=O)c2cccc(-c3noc(C)n3)c2)nc1C` [Example 219, Ethyl 4-methyl-2-(N-methyl-3-(3-(5-methyl-1,2,4-oxadiazol-3-yl)benzamido)propanamido)thiazole-5-carboxylate], the half-maximal inhibitory concentration (IC50) came to 0.089 µM.

`CCCOC(=O)c1sc(C(=O)N[C@H]2C[C@@H](Nc3nccc4ccc(-c5noc(C)n5)cc34)C2)nc1C` [Example 220, Propyl 4-methyl-2-(((1s,3s)-3-((7-(5-methyl-1,2,4-oxadiazol-3-yl)isoquinolin-1-yl)amino)cyclobutyl)carbamoyl)thiazole-5-carboxylate]: the IC50 stood at 0.122 µM. In the case of `Cc1nc(-c2ccc3ccnc(N[C@H]4C[C@@](O)(C(=O)Nc5nc(C)c(C(C)(C)C)s5)C4)c3c2)no1` [Example 221, (1 r,3r)-N-(5-(tert-butyl)-4-methylthiazol-2-yl)-1-hydroxy-3-((7-(5-methyl-1,2,4-oxadiazol-3-yl)isoquinolin-1-yl)amino)cyclobutane-1-carboxamide] it was 0.133 µM; in that of `Cc1nc(-c2ccc3ccnc(N[C@H]4C[C@@](F)(C(=O)Nc5nc(C)c(C(=O)OC(C)(C)C)s5)C4)c3c2)no1` [Example 222, tert-butyl 2-((1 r,3r)-1-fluoro-3-((7-(5-methyl-1,2,4-oxadiazol-3-yl)isoquinolin-1-yl)amino)cyclobutane-1-carboxamido)-4-methylthiazole-5-carboxylate], 0.01 µM.
